Laboratory results as given in patent US20260199364A1, “USE OF A SYK INHIBITOR FOR THE TREATMENT OF SICKLE CELL DISEASE” (Rigel Pharmaceuticals, Inc., priority 2023, published 2026).
Converted amounts (≈) assume the structure as drawn.

What was measured:
[1] = water solubility in aqueous buffer under physiological conditions; settings: for solubility: aqueous buffer
[2] = oral bioavailability of phosphate prodrug versus active drug; assay type: in vivo; settings: prodrug with progroup —CH2—O—P(O)(OH)2 compared with Compound 1

## COc1cc(Nc2ncc(F)c(Nc3ccc4c(n3)NC(=O)C(C)(C)O4)n2)cc(OC)c1OC [Compound 1, N4-(2,2-Dimethyl-3-oxo-4H-5-pyrid[1,4]oxazin-6-yl)-5-fluoro-N2-(3,4,5-trimethoxyphenyl)-2,4-pyrimidinediamine]
[1]
  solubility: 1 to 2 µg/mL (≈ 2.13 to 4.25 µM)

## COc1cc(Nc2ncc(F)c(Nc3ccc4c(n3)N(COP(=O)(O)O)C(=O)C(C)(C)O4)n2)cc(OC)c1OC [Compound 4]
[2]
  oral bioavailability: increased dramatically
[1]
  solubility: > 5000 µg/mL
[1]; aqueous buffer under physiological conditions, prodrug vs Compound 1
  solubility relative to active drug (Compound 1): approximately 2000 times greater
